Results as given in patent publication US11492345B2, “Compounds and their methods of use” (Praxis Precision Medicines, Inc., priority 2017, dated 2022).

Target: T1, human Nav1.6 (hNav1.6) (Homo sapiens, UniProt Q9UQD0)
T1 construct: expressed in transfected cells; host or cells: HEK-293 (G418 selection)
Assay: Modulation of late sodium current (INaL), PatchXpress electrophysiology
Type: cell-based
Conditions: HEK293; 1 μM compound; HEK-293 cells expressing recombinant human Nav channel; late current evoked by 300 nM ATX-II; steady-state inhibition; read-out: INaL v1.6 (1 μM, % Inhibition)
Experimental: Functional characterization of exemplary compounds to modulate INaL expressed by the Nav1.6 voltage-gated sodium channel was accomplished using the PatchXpress™ high throughput electrophysiology platform (Molecular Devices, Sunnyvale, Calif.). HEK-293 cells expressing recombinant, human Nav1.6 (hNav1.6) were grown in DMEM/high-glucose Dulbecco's modified, 10% FBS, 2 mM sodium pyruvate, 10 mM HEPES and 400 μg/mL G418. Cells were grown to 50%-80% confluency prior to harvesting. Trypsinized cells were washed, allowed to recover for 1 hour and then resuspended in extracellular recording solution at a concentration of 1×10^6 cells/ml. The onboard liquid handling facility of the PatchXpress was used for dispensing cells and applying test compounds. Nav late currents were evoked by the application of 300 nM ATX-II. INaL was evoked by depolarizing pulses to 0 mV for 200 ms from a non-inactivating holding potential (e.g., −120 mV) at a frequency of 0.1 Hz. INaL amplitude and stability were determined by analyzing the mean current amplitude over the final 20 ms of the test pulse. […] Percent steady-state inhibition of INaL was calculated as: [(INaL_compound)/(INaL_control)]*100, where INaL_compound and INaL_control represent INaL recorded in the presence or absence of compound, respectively.

T1 sequence (Q9UQD0 whole entry): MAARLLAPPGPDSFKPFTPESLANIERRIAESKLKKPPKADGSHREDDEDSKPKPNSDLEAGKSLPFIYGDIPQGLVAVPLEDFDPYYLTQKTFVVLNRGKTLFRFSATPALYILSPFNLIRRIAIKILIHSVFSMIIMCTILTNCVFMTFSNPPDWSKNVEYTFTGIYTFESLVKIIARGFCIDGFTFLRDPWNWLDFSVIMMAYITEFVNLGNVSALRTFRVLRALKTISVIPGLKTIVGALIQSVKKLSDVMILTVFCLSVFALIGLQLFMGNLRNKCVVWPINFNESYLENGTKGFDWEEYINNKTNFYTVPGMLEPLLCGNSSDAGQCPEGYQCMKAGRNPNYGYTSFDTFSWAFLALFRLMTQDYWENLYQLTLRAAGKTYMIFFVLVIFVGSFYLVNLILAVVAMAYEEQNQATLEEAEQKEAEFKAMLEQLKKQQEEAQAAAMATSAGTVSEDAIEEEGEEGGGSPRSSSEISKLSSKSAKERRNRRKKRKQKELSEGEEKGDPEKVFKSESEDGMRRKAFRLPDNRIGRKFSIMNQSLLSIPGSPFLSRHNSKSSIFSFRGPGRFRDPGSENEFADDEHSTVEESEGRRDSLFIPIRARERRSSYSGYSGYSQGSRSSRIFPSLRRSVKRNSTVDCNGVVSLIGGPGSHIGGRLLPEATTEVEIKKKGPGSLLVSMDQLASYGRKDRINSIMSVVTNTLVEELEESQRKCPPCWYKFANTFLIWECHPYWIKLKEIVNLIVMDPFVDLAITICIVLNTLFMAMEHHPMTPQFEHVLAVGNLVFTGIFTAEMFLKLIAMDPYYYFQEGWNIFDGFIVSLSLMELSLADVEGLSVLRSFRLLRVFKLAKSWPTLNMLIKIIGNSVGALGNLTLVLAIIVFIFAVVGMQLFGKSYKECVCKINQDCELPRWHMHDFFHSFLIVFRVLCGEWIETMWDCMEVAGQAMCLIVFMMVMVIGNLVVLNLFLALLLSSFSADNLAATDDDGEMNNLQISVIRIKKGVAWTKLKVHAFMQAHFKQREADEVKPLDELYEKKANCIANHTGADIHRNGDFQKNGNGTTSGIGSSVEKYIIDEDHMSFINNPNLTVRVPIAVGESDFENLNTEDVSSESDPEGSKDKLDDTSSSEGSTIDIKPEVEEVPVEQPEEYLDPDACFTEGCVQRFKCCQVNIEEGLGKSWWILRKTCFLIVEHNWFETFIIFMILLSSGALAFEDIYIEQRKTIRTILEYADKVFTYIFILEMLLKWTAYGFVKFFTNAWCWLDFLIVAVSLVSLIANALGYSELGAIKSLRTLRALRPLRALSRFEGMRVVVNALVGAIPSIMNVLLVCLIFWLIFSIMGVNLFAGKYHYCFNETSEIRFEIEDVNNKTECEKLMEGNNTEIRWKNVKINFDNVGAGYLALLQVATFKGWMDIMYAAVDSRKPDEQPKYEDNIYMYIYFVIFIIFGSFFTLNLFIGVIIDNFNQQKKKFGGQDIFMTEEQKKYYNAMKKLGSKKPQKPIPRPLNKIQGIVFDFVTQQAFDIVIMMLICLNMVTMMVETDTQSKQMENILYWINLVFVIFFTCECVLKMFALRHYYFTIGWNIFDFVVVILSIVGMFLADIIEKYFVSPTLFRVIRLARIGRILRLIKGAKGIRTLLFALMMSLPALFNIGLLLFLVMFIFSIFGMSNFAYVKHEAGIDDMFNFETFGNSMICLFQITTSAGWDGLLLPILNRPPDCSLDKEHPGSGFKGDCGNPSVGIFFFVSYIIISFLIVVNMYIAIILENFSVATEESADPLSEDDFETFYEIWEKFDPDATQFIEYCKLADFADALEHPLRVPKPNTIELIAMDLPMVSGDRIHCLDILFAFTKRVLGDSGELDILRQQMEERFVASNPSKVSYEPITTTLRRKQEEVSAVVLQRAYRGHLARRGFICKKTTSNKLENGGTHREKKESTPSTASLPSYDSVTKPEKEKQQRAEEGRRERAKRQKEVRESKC

| SMILES | inhibition at 1 µM |
| --- | --- |
| Cc1nc(Cn2c(=O)oc3ccc(-c4ccc(OC(F)(F)F)cc4)nc32)no1 [Compound 162] | > 70% |
| Cn1cnnc1Cn1c(=O)oc2ccc(-c3ccc(OC(F)(F)F)cc3)nc21 [Compound 163] | < 30% |
| Cn1ncnc1Cn1c(=O)oc2ccc(-c3ccc(OC(F)(F)F)cc3)nc21 [Compound 164] | 30 to 70% |
| O=c1oc2ccc(-c3ccc(OC(F)(F)F)cc3)nc2n1Cc1cn[nH]c1 [Compound 165] | 30 to 70% |
| Cc1n[nH]cc1Cn1c(=O)oc2ccc(-c3ccc(OC(F)(F)F)cc3)nc21 [Compound 167] | < 30% |
